Experimental data from patent US20230167118A1, “DEGRADATION OF BRUTON'S TYROSINE KINASE (BTK) BY CONJUGATION OF BTK INIDBITORS WITH E3 LIGASE LIGAND AND METHODS OF USE” (BEIGENE, LTD., priority 2020, published 2023).

What was measured:
BTK = target: T1, BTK (Homo sapiens, UniProt Q06187); assay: Cell Degradation: BTK degradation in TMD-8 cells, HTRF assay; assay type: cell-based; conditions: 6 h treatment, IC50 (DC50) of BTK degradation
T1 construct: High control=Cell group with added DMSO and without compound, indicating microplate readings without BTK degradation; endogenous in cells; host or cells: TMD-8 cells
T1 sequence (Q06187 whole entry): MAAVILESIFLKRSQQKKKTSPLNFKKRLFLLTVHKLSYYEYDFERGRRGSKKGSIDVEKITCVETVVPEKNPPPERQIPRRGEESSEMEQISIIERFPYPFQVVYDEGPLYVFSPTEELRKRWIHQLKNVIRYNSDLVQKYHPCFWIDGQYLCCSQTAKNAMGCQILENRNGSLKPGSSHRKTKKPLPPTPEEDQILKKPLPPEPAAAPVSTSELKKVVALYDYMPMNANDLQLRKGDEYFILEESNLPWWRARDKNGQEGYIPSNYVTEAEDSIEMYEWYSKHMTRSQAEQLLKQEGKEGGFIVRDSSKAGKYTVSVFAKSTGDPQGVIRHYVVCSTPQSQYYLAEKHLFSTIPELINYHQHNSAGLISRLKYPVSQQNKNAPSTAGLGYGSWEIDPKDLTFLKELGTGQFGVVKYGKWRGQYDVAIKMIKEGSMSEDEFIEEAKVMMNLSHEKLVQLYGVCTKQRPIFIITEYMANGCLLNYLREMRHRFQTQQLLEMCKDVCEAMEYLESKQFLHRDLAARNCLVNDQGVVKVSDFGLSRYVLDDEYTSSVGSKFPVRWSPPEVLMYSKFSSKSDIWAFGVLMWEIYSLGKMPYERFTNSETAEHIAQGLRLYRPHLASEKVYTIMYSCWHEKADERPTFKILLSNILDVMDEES
Protocol: TMD-8 cells are treated with compounds in 0.2% DMSO, dilution is done according to the following protocol: (1) make 500× stock solution in DMSO from 1 mM by 6-fold dilution, total 8 doses were included; (2) make 2× solution in cell culture medium by transferring 0.5 μl 500× stock solution into 125 μl medium; (3) 15 μl of 2× solution is added to cells and incubate for 6 h.
After 6 h treatment, add […] 4×lysis buffer to each well; seal the plate and incubate 30 min at room temperature on a plate shaker; Once the cells are lysed, 16 μL of cell lysate are transferred to a PE 384-well HTRF detection plate; 4 μL of pre-mixed HTRF antibodies are added to each well; Cover the plate with a plate sealer, spin 1000 rpm for 1 min, Incubate overnight at room temperature; Read on BMG PheraStar with HTRF protocol (337 nm-665 nm-620 nm).
The inhibition (degradation) percentage of the compound was calculated by the following equation: Inhibition percentage of Compound=100-100× (Signal-low control)/(High control-low control), wherein signal=each test compound group
Dmax is the maximum percentage of inhibition (degradation).
The IC50 (DC50) value of a compound can be obtained by fitting the following equation
Y=Bottom+(TOP-Bottom)/(1+((IC50/X)^hillslope))
(§1) Wherein, X and Y are known values, and IC50, Hillslope, Top and Bottom are the parameters obtained by fitting with software. Y is the inhibition percentage (calculated from the equation), X is the concentration of the compound; IC50 is the concentration of the compound when the 50% inhibition is reached. The smaller the IC50 value is, the stronger the inhibitory ability of the compound is. Vice versa, the higher the IC50 value is, the weaker the ability the inhibitory ability of the compound is; Hillslope represents the slope of the fitted curve, generally around 1 *; Bottom represents the minimum value of the curve obtained by data fitting, which is generally 0%±20%; Top represents the maximum value of the curve obtained by data fitting, which is generally 100%±20%. The experimental data were fitted by calculating and analyzing with Dotmatics data analysis software.

HEK-293 cells = assay: HEK-293 Cytotoxicity Assay (CellTiter-Glo); assay type: cell-based; conditions: Homo sapiens, HEK293, 72 h incubation, CellTiter-Glo luminescence
Protocol: HEK-293 Cytotoxicity Assay
HEK-293 cells are treated with compounds diluted in 0.2% DMSO, dilution is done according to the following protocol: (1) make 500× stock solution in DMSO from 5 mM by 4-fold dilution, total 8 doses were included; (2) make 2× solution in cell culture medium by transferring 0.5 ul 500× stock solution into 125 ul medium; (3) 50 ul of 2× solution is added to cells and incubate for 72 h.
Add 25 μl of the CellTiter-Glo®Reagent [I (Promega)—Cat No. G7572] to each well in the 96-well plate. Mix contents for 2 minutes on an orbital shaker to induce cell lysis. Allow the plate to incubate at room temperature for 10 minutes to stabilize luminescent signal. Record luminescence on BMG PheraStar with luminescence protocol.
as §1, with “The IC50 value of a compound can be obtained by fitting the following equation. Y=Bottom+(TOP−Bottom)/(1+((IC50/X)^hillslope)) Wherein,” for “Wherein,”, “1*;” for “1 *;”

| Compound | DC50 (BTK) [nM] | IC50 (HEK-293 cells) [nM] |
| --- | --- | --- |
| Cc1cc(-c2ncnc3[nH]c(-c4ccc(N5CCN(CC6CCN(c7ccc(N8CCC(=O)NC8=O)cc7)CC6)CC5)nc4)cc23)ccc1[C@@H](C)NC(=O)c1nc(C(C)(C)C)no1 [Example 14, (R)-3-(tert-butyl)-N-(1-(4-(6-(6-(4-((1-(4-(2,4-dioxotetrahydropyrimidin-1(2H)-yl)phenyl)piperidin-4-yl)methyl)piperazin-1-yl)pyridin-3-yl)-7H-pyrrolo[2,3-d]pyrimidin-4-yl)-2-methylphenyl)ethyl)-1,2,4-oxadiazole-5-carboxamide] | 0.72 | > 10000 |
| Cc1cc(-c2ncnc3[nH]c(-c4ccc(C5CCN(CCC6CCN(c7ccc(N8CCC(=O)NC8=O)c(F)c7)CC6)CC5)cc4)cc23)ccc1CNC(=O)c1nc(C(C)(C)C)no1 [Example 15, 3-(tert-butyl)-N-(4-(6-(4-(1-(2-(1-(4-(2,4-dioxotetrahydropyrimidin-1(2H)-yl)-3-fluorophenyl)piperidin-4-yl)ethyl)piperidin-4-yl)phenyl)-7H-pyrrolo[2,3-d]pyrimidin-4-yl)-2-methylbenzyl)-1,2,4-oxadiazole-5-carboxamide] | 1 | 1230 |
| CC(C)(C)c1noc(C(=O)NCc2ccc(-c3ncnc4[nH]c(-c5cnn(C6CCN(CC7CCN(c8ccc(N9CCC(=O)NC9=O)cc8)CC7)CC6)c5)cc34)cc2F)n1 [Example 16, 3-(tert-butyl)-N-(4-(6-(1-(1-((1-(4-(2,4-dioxotetrahydropyrimidin-1(2H)-yl)phenyl)piperidin-4-yl)methyl)piperidin-4-yl)-1H-pyrazol-4-yl)-7H-pyrrolo[2,3-d]pyrimidin-4-yl)-2-fluorobenzyl)-1,2,4-oxadiazole-5-carboxamide] | 0.55 | > 10000 |
| Cc1cc(-c2ncnc3[nH]c(-c4ccc(N5CCN(CC6CCN(c7ccc(N8CCC(=O)NC8=O)cc7)CC6)CC5)cn4)cc23)ccc1[C@@H](C)NC(=O)c1nc(C(C)(C)C)no1 [Example 19, (R)-3-(tert-butyl)-N-(1-(4-(6-(5-(4-((1-(4-(2,4-dioxotetrahydropyrimidin-1(2H)-yl)phenyl)piperidin-4-yl)methyl)piperazin-1-yl)pyridin-2-yl)-7H-pyrrolo[2,3-d]pyrimidin-4-yl)-2-methylphenyl)ethyl)-1,2,4-oxadiazole-5-carboxamide] | 0.72 | > 10000 |
| C[C@@H](NC(=O)c1nc(C(C)(C)C)no1)c1ccc(-c2ncnc3[nH]c(-c4ccc(N5CCN(CC6CCN(c7ccc(N8CCC(=O)NC8=O)cc7)CC6)CC5)cc4)cc23)cc1F [Example 21, (R)-3-(tert-butyl)-N-(1-(4-(6-(4-(4-((1-(4-(2,4-dioxotetrahydropyrimidin-1(2H)-yl)phenyl)piperidin-4-yl)methyl)piperazin-1-yl)phenyl)-7H-pyrrolo[2,3-d]pyrimidin-4-yl)-2-fluorophenyl)ethyl)-1,2,4-oxadiazole-5-carboxamide] | 1.7 | > 10000 |
| CC(C)(C)c1noc(C(=O)NCc2ccc(-c3ncnc4[nH]c(-c5ccc(C6CCN(CC7CCN(c8ccc(N9CCC(=O)NC9=O)cc8)CC7)CC6)cc5)cc34)cc2F)n1 [Example 23] | 0.87 | > 10000 |
| Cc1cc(-c2ncnc3[nH]c(-c4ccc(C5CCN(CCC6CCN(c7ccc(N8CCC(=O)NC8=O)c(Cl)c7)CC6)CC5)cc4)cc23)ccc1CNC(=O)c1nc(C(C)(C)C)no1 [Example 24, 3-(tert-butyl)-N-(4-(6-(4-(1-(2-(1-(3-chloro-4-(2,4-dioxotetrahydropyrimidin-1(2H)-yl)phenyl)piperidin-4-yl)ethyl)piperidin-4-yl)phenyl)-7H-pyrrolo[2,3-d]pyrimidin-4-yl)-2-methylbenzyl)-1,2,4-oxadiazole-5-carboxamide] | 4.8 | 4650 |
| Cc1cc(-c2ncnc3[nH]c(-c4ccc(N5CCN(CC6CCN(c7ccc(N8CCC(=O)NC8=O)cc7)CC6)CC5)cc4)nc23)ccc1[C@@H](C)NC(=O)c1nc(C(C)(C)C)no1 [Example 25, (R)-3-(tert-butyl)-N-(1-(4-(8-(4-(4-((1-(4-(2,4-dioxotetrahydropyrimidin-1(2H)-yl)phenyl)piperidin-4-yl)methyl)piperazin-1-yl)phenyl)-9H-purin-6-yl)-2-methylphenyl)ethyl)-1,2,4-oxadiazole-5-carboxamide] | 1.4 | > 10000 |

Now from value to molecule, other results behind:

| DC50 (BTK) [nM] | Compound | IC50 (HEK-293 cells) [nM] |
| --- | --- | --- |
| 2.3 | Cc1cc(-c2ncnc3[nH]c(-c4ccc(C5CCN(CCC6CCN(c7ccc(N8CCC(=O)NC8=O)c(C)n7)CC6)CC5)cc4)cc23)ccc1CNC(=O)c1nc(C(C)(C)C)no1 [Example 13, 3-(tert-butyl)-N-(4-(6-(4-(1-(2-(1-(5-(2,4-dioxotetrahydropyrimidin-1(2H)-yl)-6-methylpyridin-2-yl)piperidin-4-yl)ethyl)piperidin-4-yl)phenyl)-7H-pyrrolo[2,3-d]pyrimidin-4-yl)-2-methylbenzyl)-1,2,4-oxadiazole-5-carboxamide] | 1860 |
| 3.2 | Cc1cc(-c2ncnc3[nH]c(-c4ccc(C5CCN(CC6CCN(c7ccc8c(c7)CN(C7CCC(=O)NC7=O)C8=O)CC6)CC5)cc4)cc23)ccc1CNC(=O)c1nc(C(C)(C)C)no1 (centres unmarked) [Example 17, 3-(tert-butyl)-N-(4-(6-(4-(1-((1-(2-(2,6-dioxopiperidin-3-yl)-1-oxoisoindolin-5-yl)piperidin-4-yl)methyl)piperidin-4-yl)phenyl)-7H-pyrrolo[2,3-d]pyrimidin-4-yl)-2-methylbenzyl)-1,2,4-oxadiazole-5-carboxamide] | > 10000 |
| 1.7 | Cc1cc(-c2ncnc3[nH]c(-c4ccc(N5CCN(CC6CCN(c7ccc(N8CCC(=O)NC8=O)cc7)CC6)CC5)cc4)cc23)ccc1CNC(=O)c1nc(C(C)(C)C)no1 [Example 18, 3-(tert-butyl)-N-(4-(6-(4-(4-((1-(4-(2,4-dioxotetrahydropyrimidin-1(2H)-yl)phenyl)piperidin-4-yl)methyl)piperazin-1-yl)phenyl)-7H-pyrrolo[2,3-d]pyrimidin-4-yl)-2-methylbenzyl)-1,2,4-oxadiazole-5-carboxamide] | > 10000 |
| 1.4 | Cc1cc(-c2ncnc3[nH]c(-c4ccc(N5CCN(CC6CCN(c7ccc(N8CCC(=O)NC8=O)cc7)CC6)CC5)cc4)cc23)ccc1[C@@H](C)NC(=O)c1nc(C(C)(C)C)no1 [Example 20, (R)-3-(tert-butyl)-N-(1-(4-(6-(4-(4-((1-(4-(2,4-dioxotetrahydropyrimidin-1(2H)-yl)phenyl)piperidin-4-yl)methyl)piperazin-1-yl)phenyl)-7H-pyrrolo[2,3-d]pyrimidin-4-yl)-2-methylphenyl)ethyl)-1,2,4-oxadiazole-5-carboxamide] | > 10000 |
| 2.3 | Cc1cc(-c2ncnc3[nH]c(-c4ccc(C5CCN(CCC6CCN(c7ccc(N8CCC(=O)NC8=O)c(C)c7)CC6)CC5)cc4)cc23)ccc1CNC(=O)c1nc(C(C)(C)C)no1 [Example 22, 3-(tert-butyl)-N-(4-(6-(4-(1-(2-(1-(4-(2,4-dioxotetrahydropyrimidin-1(2H)-yl)-3-methylphenyl)piperidin-4-yl)ethyl)piperidin-4-yl)phenyl)-7H-pyrrolo[2,3-d]pyrimidin-4-yl)-2-methylbenzyl)-1,2,4-oxadiazole-5-carboxamide] | 1560 |
